Experiments:
[1] = biological target: Tyrosine-protein kinase ABL1 (Mus musculus) (UniProt P00520); experiment: Inhibition of mouse Abl at 10 uM after 60 mins by TR-FRET assay; values are per cent of control
[2] = biological target: Receptor tyrosine-protein kinase erbB-4 (Homo sapiens) (UniProt Q15303); experiment: Inhibition of human ErbB4 at 10 uM after 60 mins by TR-FRET assay; conditions: values are per cent of control
[3] = biological target: Serine/threonine-protein kinase WNK2 (Homo sapiens) (UniProt Q9Y3S1); experiment: Inhibition of human WNK2 at 10 uM after 60 mins by TR-FRET assay; values are per cent of control
[4] = biological target: Proto-oncogene tyrosine-protein kinase ROS (Homo sapiens) (UniProt P08922); experiment: Inhibition of human Ros at 10 uM after 60 mins by TR-FRET assay; values are per cent of control
[5] = biological target: Tyrosine-protein kinase Fgr (Homo sapiens) (UniProt P09769); experiment: Inhibition of human Fgr at 10 uM after 60 mins by TR-FRET assay; values are per cent of control
[6] = biological target: Calcium/calmodulin-dependent protein kinase type II subunit beta (Homo sapiens) (UniProt Q13554); experiment: Inhibition of human CaMK2beta at 10 uM after 60 mins by TR-FRET assay; values are per cent of control
[7] = biological target: Ephrin type-B receptor 3 (Homo sapiens) (UniProt P54753); experiment: Inhibition of human EphB3 at 10 uM after 60 mins by TR-FRET assay; values are per cent of control
[8] = biological target: Tyrosine-protein kinase ITK/TSK (Homo sapiens) (UniProt Q08881); experiment: Inhibition of human Itk at 10 uM after 60 mins by TR-FRET assay; conditions: values are per cent of control
[9] = biological target: Homeodomain-interacting protein kinase 1 (Homo sapiens) (UniProt Q86Z02); experiment: Inhibition of human HIPK1 at 10 uM after 60 mins by TR-FRET assay; values are per cent of control
[10] = biological target: Ephrin type-B receptor 2 (Homo sapiens) (UniProt P29323); experiment: Inhibition of human EphB2 at 10 uM after 60 mins by TR-FRET assay; conditions: values are per cent of control
[11] = biological target: Mitogen-activated protein kinase 13 (Homo sapiens) (UniProt O15264); experiment: Inhibition of human SAPK4 at 10 uM after 60 mins by TR-FRET assay; conditions: values are per cent of control
[12] = biological target: Tyrosine-protein kinase BTK (Homo sapiens) (UniProt Q06187); experiment: Inhibition of human BTK at 10 uM after 60 mins by TR-FRET assay; values are per cent of control
[13] = biological target: SRSF protein kinase 1 (Homo sapiens) (UniProt Q96SB4); experiment: Inhibition of human SRPK1 at 10 uM after 60 mins by TR-FRET assay; values are per cent of control
[14] = biological target: Ribosomal protein S6 kinase alpha-1 (Rattus norvegicus) (UniProt Q63531); experiment: Inhibition of rat Rsk1 at 10 uM after 60 mins by TR-FRET assay; values are per cent of control
[15] = test system: Saccharomyces cerevisiae; experiment: Inhibition of yeast CK1 at 10 uM after 60 mins by TR-FRET assay; values are per cent of control
[16] = biological target: LIM domain kinase 1 (Homo sapiens) (UniProt P53667); experiment: Inhibition of human LIMK1 at 10 uM after 60 mins by TR-FRET assay; values are per cent of control
[17] = biological target: Activated CDC42 kinase 1 (Homo sapiens) (UniProt Q07912); experiment: Inhibition of human ACK1 at 10 uM after 60 mins by TR-FRET assay; values are per cent of control
[18] = biological target: Serine/threonine-protein kinase Nek6 (Homo sapiens) (UniProt Q9HC98); experiment: Inhibition of human NEK6 at 10 uM after 60 mins by TR-FRET assay; values are per cent of control
[19] = biological target: Serine/threonine-protein kinase 33 (Homo sapiens) (UniProt Q9BYT3); experiment: Inhibition of human STK33 at 10 uM after 60 mins by TR-FRET assay; values are per cent of control
[20] = biological target: Mast/stem cell growth factor receptor Kit (Homo sapiens) (UniProt P10721); experiment: Inhibition of human c-Kit at 10 uM after 60 mins by TR-FRET assay; values are per cent of control
[21] = biological target: Ribosomal protein S6 kinase alpha-5 (Homo sapiens) (UniProt O75582); experiment: Inhibition of human MSK1 at 10 uM after 60 mins by TR-FRET assay; conditions: values are per cent of control
[22] = biological target: Proto-oncogene tyrosine-protein kinase Src (Homo sapiens) (UniProt P12931); experiment: Inhibition of human Src (1 to 530) at 10 uM after 60 mins by TR-FRET assay; values are per cent of control
[23] = biological target: Fibroblast growth factor receptor 3 (Homo sapiens) (UniProt P22607); experiment: Inhibition of human FGFR3 at 10 uM after 60 mins by TR-FRET assay; values are per cent of control
[24] = biological target: Serine/threonine-protein kinase 17B (Homo sapiens) (UniProt O94768); experiment: Inhibition of human DYRK2 at 10 uM after 60 mins by TR-FRET assay; values are per cent of control
[25] = biological target: Serine/threonine-protein kinase 24 (Homo sapiens) (UniProt Q9Y6E0); experiment: Inhibition of human MST3 at 10 uM after 60 mins by TR-FRET assay; conditions: values are per cent of control
[26] = test system: Epidermal growth factor receptor (Homo sapiens), P00533 [T790M]; experiment: Inhibition of human EGFR T790M mutant at 10 uM after 60 mins by TR-FRET assay; format: protein assay; conditions: values are per cent of control
[27] = test system: Tyrosine-protein kinase ABL1 (Homo sapiens), P00519 [H396P]; experiment: Inhibition of human Abl H396P mutant at 10 uM after 60 mins by TR-FRET assay; values are per cent of control
[28] = test system: Platelet-derived growth factor receptor alpha (Homo sapiens), P16234 [D842V]; experiment: Inhibition of human PDGFRalpha D842V mutant at 10 uM after 60 mins by TR-FRET assay; values are per cent of control
[29] = biological target: MAP kinase-activated protein kinase 3 (Homo sapiens) (UniProt Q16644); experiment: Inhibition of human MAPKAP-K3 at 10 uM after 60 mins by TR-FRET assay; values are per cent of control

Chain of Mitogen-activated protein kinase 13 (Homo sapiens) (O15264 whole entry): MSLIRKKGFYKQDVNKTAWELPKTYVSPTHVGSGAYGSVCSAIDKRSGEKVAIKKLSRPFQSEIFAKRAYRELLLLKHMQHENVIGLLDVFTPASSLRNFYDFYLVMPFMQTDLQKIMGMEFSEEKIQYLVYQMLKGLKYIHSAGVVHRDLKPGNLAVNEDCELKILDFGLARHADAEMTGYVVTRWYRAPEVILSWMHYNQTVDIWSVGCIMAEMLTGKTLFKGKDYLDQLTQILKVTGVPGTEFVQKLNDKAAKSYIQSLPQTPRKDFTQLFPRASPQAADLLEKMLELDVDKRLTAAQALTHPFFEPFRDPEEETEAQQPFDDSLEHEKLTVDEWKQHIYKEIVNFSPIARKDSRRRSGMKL
Chain of Serine/threonine-protein kinase WNK2 (Homo sapiens) (Q9Y3S1 whole entry): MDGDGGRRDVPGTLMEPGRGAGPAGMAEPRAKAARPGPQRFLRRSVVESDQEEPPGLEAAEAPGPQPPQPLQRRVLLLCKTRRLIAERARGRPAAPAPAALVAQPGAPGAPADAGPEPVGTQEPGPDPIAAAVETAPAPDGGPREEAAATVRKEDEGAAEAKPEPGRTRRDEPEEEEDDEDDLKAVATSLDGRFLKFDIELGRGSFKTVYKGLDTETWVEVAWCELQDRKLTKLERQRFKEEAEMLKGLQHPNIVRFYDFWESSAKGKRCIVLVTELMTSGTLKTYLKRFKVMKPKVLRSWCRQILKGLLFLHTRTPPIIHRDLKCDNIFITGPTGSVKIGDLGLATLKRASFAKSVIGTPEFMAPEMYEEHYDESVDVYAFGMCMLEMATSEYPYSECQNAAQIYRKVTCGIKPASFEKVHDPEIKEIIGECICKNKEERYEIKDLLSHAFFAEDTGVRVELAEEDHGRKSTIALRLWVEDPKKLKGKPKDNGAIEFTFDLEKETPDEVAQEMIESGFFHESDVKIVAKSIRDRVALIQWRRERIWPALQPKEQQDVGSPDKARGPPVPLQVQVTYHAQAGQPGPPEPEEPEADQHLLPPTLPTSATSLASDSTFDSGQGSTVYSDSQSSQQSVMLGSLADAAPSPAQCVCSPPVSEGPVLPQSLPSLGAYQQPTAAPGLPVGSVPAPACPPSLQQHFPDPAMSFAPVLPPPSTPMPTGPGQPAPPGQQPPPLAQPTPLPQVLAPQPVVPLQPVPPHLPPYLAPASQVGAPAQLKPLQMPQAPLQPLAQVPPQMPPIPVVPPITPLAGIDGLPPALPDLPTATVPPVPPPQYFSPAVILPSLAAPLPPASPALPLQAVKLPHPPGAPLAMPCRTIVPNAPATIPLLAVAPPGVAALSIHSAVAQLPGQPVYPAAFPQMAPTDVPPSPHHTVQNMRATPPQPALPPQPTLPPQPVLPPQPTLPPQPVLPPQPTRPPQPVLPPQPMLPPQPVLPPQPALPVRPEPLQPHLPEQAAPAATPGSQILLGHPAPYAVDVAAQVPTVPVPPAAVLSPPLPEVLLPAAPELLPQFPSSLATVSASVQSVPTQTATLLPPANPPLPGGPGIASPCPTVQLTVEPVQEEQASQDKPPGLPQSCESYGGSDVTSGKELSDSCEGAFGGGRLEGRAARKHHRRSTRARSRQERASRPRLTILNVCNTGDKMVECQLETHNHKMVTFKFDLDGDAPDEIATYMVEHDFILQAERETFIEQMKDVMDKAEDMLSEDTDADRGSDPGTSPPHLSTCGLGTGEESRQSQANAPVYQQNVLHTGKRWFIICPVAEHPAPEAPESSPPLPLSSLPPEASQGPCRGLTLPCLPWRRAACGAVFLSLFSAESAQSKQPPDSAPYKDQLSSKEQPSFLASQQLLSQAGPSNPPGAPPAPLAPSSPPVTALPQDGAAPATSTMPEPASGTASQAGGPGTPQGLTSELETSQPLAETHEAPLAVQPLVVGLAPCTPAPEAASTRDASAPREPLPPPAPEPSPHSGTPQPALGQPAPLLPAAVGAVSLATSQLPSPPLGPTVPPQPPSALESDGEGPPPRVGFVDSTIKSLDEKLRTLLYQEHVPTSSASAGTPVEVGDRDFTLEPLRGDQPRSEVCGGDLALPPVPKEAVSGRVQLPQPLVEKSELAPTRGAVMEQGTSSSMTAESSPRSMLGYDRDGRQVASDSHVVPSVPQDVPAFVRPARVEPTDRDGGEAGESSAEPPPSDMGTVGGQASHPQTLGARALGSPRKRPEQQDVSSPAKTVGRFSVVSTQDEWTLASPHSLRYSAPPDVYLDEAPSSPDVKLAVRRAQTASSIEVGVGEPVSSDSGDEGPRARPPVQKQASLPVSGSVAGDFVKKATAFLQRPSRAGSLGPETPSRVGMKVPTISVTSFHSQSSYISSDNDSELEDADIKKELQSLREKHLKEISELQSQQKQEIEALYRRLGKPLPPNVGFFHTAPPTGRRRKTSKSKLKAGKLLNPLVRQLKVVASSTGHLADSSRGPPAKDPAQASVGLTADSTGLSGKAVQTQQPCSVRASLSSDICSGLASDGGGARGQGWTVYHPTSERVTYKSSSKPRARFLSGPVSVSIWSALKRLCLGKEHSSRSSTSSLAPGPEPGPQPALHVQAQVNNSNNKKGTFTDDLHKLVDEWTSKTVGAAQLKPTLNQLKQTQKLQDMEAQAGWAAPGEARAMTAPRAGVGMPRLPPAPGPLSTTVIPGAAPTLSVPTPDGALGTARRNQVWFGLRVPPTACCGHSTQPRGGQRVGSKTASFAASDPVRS
Chain of Homeodomain-interacting protein kinase 1 (Homo sapiens) (Q86Z02 whole entry, looked up): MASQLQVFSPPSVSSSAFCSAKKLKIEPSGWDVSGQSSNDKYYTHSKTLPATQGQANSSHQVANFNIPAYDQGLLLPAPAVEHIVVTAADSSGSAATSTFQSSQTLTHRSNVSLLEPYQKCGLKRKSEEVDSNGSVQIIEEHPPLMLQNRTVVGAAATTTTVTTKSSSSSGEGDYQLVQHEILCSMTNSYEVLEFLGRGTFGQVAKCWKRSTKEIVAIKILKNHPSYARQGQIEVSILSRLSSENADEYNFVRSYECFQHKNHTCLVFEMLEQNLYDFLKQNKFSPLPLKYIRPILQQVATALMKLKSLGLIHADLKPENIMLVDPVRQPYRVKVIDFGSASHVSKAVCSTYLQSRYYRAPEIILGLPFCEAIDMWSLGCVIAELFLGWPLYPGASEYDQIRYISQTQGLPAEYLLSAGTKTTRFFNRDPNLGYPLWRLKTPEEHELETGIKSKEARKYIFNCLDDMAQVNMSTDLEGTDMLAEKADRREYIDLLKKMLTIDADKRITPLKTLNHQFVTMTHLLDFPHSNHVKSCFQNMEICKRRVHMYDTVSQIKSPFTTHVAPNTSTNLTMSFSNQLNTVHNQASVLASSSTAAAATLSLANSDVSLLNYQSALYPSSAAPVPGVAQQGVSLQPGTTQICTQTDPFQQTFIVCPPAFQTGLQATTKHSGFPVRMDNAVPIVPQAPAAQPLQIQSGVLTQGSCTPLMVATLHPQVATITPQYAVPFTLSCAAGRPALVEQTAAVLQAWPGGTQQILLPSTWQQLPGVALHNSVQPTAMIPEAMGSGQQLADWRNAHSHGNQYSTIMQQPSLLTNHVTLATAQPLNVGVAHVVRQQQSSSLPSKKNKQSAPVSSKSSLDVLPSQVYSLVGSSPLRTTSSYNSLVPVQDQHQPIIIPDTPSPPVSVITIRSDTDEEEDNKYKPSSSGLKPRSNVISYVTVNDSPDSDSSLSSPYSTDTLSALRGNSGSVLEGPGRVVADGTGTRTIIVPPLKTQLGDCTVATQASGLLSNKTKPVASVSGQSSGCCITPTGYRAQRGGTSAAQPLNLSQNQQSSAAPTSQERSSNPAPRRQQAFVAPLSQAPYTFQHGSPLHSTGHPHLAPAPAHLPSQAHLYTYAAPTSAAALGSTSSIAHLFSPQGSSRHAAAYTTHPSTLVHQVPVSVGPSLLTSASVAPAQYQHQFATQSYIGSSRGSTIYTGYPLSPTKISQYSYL
Chain of Tyrosine-protein kinase ABL1 (Mus musculus) (P00520 whole entry): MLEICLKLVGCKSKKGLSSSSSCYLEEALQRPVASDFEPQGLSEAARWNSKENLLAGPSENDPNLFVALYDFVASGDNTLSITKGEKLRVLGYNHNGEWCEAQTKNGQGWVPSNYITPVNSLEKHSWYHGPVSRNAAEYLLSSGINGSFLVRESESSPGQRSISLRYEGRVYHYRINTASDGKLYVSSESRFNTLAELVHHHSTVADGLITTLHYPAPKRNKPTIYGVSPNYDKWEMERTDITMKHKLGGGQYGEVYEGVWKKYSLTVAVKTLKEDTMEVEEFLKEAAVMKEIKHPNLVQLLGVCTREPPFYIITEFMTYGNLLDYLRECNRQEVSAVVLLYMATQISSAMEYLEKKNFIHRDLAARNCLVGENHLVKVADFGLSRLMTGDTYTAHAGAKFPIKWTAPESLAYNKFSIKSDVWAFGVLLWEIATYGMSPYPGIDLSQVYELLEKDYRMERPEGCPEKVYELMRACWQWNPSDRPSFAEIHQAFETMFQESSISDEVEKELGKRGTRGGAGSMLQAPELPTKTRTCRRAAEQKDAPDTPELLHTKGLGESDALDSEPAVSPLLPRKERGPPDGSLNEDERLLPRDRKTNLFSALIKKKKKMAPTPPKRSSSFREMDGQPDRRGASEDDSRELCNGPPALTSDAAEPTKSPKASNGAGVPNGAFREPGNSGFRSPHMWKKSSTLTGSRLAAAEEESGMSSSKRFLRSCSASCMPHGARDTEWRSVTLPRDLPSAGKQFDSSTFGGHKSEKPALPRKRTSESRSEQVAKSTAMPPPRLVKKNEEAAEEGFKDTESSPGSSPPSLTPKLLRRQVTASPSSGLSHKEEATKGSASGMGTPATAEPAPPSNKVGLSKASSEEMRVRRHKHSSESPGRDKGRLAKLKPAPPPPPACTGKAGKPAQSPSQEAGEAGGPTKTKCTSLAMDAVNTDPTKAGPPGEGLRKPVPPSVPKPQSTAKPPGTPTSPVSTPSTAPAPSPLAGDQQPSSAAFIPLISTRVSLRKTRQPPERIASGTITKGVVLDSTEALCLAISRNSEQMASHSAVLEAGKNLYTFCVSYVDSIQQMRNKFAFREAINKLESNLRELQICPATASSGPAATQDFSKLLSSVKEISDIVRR

S=c1[nH]nc(-c2ccncc2)n1-c1ccc2ccccc2c1
residual activity [1]: 94%
residual activity [2]: 99%
residual activity [3]: 108%
residual activity [4]: 100%
residual activity [5]: 99%
residual activity [6]: 113%
residual activity [7]: 102%
residual activity [8]: 103%
residual activity [9]: 110%
residual activity [10]: 105%
residual activity [11]: 111%
residual activity [12]: 118%
residual activity [13]: 93%
residual activity [14]: 103%
residual activity [15]: 90%
residual activity [16]: 101%
residual activity [17]: 103%
residual activity [18]: 116%
residual activity [19]: 107%
residual activity [20]: 108%
residual activity [21]: 114%
residual activity [22]: 106%
residual activity [23]: 109%
residual activity [24]: 104%
residual activity [25]: 111%
residual activity [26]: 98%
residual activity [27]: 107%
residual activity [28]: 122%
residual activity [29]: 112%

Source: ChEMBL document CHEMBL1641539 (Bioorg Med Chem Lett, 2011)
